Reference: PubChem BioAssay AID248 (DTP/NCI, 2004)
“And” between values parts separate entries of the source, which are not always exact repeats. Equal entries are not always repeated. Toxic doses and inconclusive results are not listed. No stated cut-off is given here; in the data, active means T/C of 150% or more; inactive means T/C below 125%.

Test system: L1210 leukemia ip in BDF1 mice, survival T/C
Test: NCI In Vivo Anticancer Drug Screen. Data for tumor model L1210 Leukemia (intraperitoneal) in B6D2F1 (BDF1) mice
Conditions: endpoint: mean survival time, higher = longer survival
Procedure, shortened: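 Tumor was transplanted into mice, which were then dosed with test compound or vehicle alone. Survival was recorded for each group, and the treated figure was expressed relative to the control figure.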

[1] = dose: 50.0 mg/kg/injection, schedule: Q01DX009 (ip), vehicle: saline
[2] = dose: 100.0 mg/kg/injection, schedule: Q01DX009 (ip), vehicle: saline
[3] = dose: 100.0 mg/kg/injection, schedule: Q01DX009 (ip), vehicle: Klucel (hydroxypropylcellulose) (HPC)
[4] = dose: 100.0 mg/kg/injection, schedule: Q04DX003 (ip), vehicle: Klucel (hydroxypropylcellulose) (HPC)
[5] = dose: 200.0 mg/kg/injection, schedule: Q01DX009 (ip), vehicle: Klucel (hydroxypropylcellulose) (HPC)
[6] = dose: 200.0 mg/kg/injection, schedule: Q04DX003 (ip), vehicle: Klucel (hydroxypropylcellulose) (HPC)
[7] = dose: 400.0 mg/kg/injection, schedule: Q01DX009 (ip), vehicle: Klucel (hydroxypropylcellulose) (HPC)
[8] = dose: 400.0 mg/kg/injection, schedule: Q04DX003 (ip), vehicle: Klucel (hydroxypropylcellulose) (HPC)
[9] = dose: 100.0 mg/kg/injection, schedule: Q04DX003 (ip), vehicle: saline
[10] = dose: 200.0 mg/kg/injection, schedule: Q04DX003 (ip), vehicle: saline
[11] = dose: 400.0 mg/kg/injection, schedule: Q04DX003 (ip), vehicle: saline
[12] = dose: 25.0 mg/kg/injection, schedule: Q04DX003 (ip), vehicle: saline
[13] = dose: 50.0 mg/kg/injection, schedule: Q04DX003 (ip), vehicle: saline
[14] = dose: 37.5 mg/kg/injection, schedule: Q01DX001 (ip), vehicle: Klucel (hydroxypropylcellulose) (HPC)
[15] = dose: 75.0 mg/kg/injection, schedule: Q01DX001 (ip), vehicle: Klucel (hydroxypropylcellulose) (HPC)
[16] = dose: 75.0 mg/kg/injection, schedule: Q01DX001 (ip), vehicle: saline
[17] = dose: 100.0 mg/kg/injection, schedule: Q01DX009 (ip), vehicle: saline with Tween-80
[18] = dose: 100.0 mg/kg/injection, schedule: Q01DX001 (ip), vehicle: saline
[19] = dose: 200.0 mg/kg/injection, schedule: Q01DX001 (ip), vehicle: saline
[20] = dose: 400.0 mg/kg/injection, schedule: Q01DX001 (ip), vehicle: saline

Measured: T/C

ClC1C2c3ccccc3C(C1Cl)[n+]1ccccc12 (stereo unspecified)
inactive: dose: 6.25 mg/kg/injection, schedule: Q01DX009 (ip), vehicle: Klucel (hydroxypropylcellulose) (HPC) 109 % of control | dose: 12.5 mg/kg/injection, schedule: Q01DX009 (ip), vehicle: Klucel (hydroxypropylcellulose) (HPC) 98 % of control | dose: 25.0 mg/kg/injection, schedule: Q01DX009 (ip), vehicle: Klucel (hydroxypropylcellulose) (HPC) 94 % of control | dose: 35.0 mg/kg/injection, schedule: Q01DX009 (ip), vehicle: Klucel (hydroxypropylcellulose) (HPC) 95 % of control

C=CCNc1ncnc2c1cnn2C
inactive: [1] 118 % of control | [2] 103 % of control

Cc1ccc(C)c(NC(=O)N(CC(O)c2ccccc2)C2CCCCC2)c1 (stereo unspecified)
inactive: [3] 103 % of control | [4] 96 % of control | [5] 97 % of control | [6] 100 % of control | [7] 95 % of control | [8] 104 % of control

O=S(=O)(O)c1ccc(N=Nc2c(O)cc(O)cc2O)cc1
inactive: [9] 94 % of control | [10] 97 % of control | [11] 93 % of control

O=C1CCC(=O)N1O
inactive: dose: 50.0 mg/kg/injection, schedule: Q01DX Z (ip), vehicle: saline 94 % of control | [2] 93 % of control | dose: 100.0 mg/kg/injection, schedule: Q01DX Z (ip), vehicle: saline 93 % of control | dose: 200.0 mg/kg/injection, schedule: Q01DX009 (ip), vehicle: saline 90 % of control | dose: 200.0 mg/kg/injection, schedule: Q01DX Z (ip), vehicle: saline 96 % of control | dose: 400.0 mg/kg/injection, schedule: Q01DX009 (ip), vehicle: saline 92 % of control | dose: 400.0 mg/kg/injection, schedule: Q01DX Z (ip), vehicle: saline 93 % of control

COP(=O)(OC)OCc1cnc(SC)nc1N
inactive: dose: 25.0 mg/kg/injection, schedule: Q01DX009 (ip), vehicle: saline 100 % of control | [12] 100 % of control | [1] 102 % of control | [13] 105 % of control | [2] 98 % of control | [9] 101 % of control and 102 % of control

CN(c1ccccc1)S(=O)(=O)c1ccc(NC(=O)CBr)cc1
inactive: [14] 86 % of control | [15] 93 % of control

C/C(=N\O)c1ccc[n+](Cc2ccc(C)cc2)c1
inactive: dose: 9.38 mg/kg/injection, schedule: Q01DX001 (ip), vehicle: other 97 % of control | dose: 18.75 mg/kg/injection, schedule: Q01DX001 (ip), vehicle: other 97 % of control

C/C=C(/C(=O)O)c1ccccc1
inactive: [4] 109 % of control | [6] 88 % of control | [8] 94 % of control

CC12CCC(C/C1=N\N=C(N)N)C2(C)C (stereo unspecified)
inactive: dose: 9.37 mg/kg/injection, schedule: Q01DX009 (ip), vehicle: saline 97 % of control | dose: 18.75 mg/kg/injection, schedule: Q01DX009 (ip), vehicle: saline 96 % of control | dose: 18.75 mg/kg/injection, schedule: Q04DX003 (ip), vehicle: saline 102 % of control | dose: 37.5 mg/kg/injection, schedule: Q01DX009 (ip), vehicle: saline 102 % of control | dose: 37.5 mg/kg/injection, schedule: Q04DX003 (ip), vehicle: saline 94 % of control | [16] 105 % of control | dose: 75.0 mg/kg/injection, schedule: Q04DX003 (ip), vehicle: saline 88 % of control

C1=C(c2ccccc2)CC(/C=C/c2ccccc2)(c2ccccc2)C1c1ccccc1 (stereo unspecified)
inactive: [17] 87 % of control

COc1ccc(-n2c(=O)c(N=Nc3ccccc3C)c(O)n(-c3ccccc3C)c2=S)cc1
inactive: [14] 100 % of control | [15] 97 % of control | dose: 150.0 mg/kg/injection, schedule: Q01DX001 (ip), vehicle: Klucel (hydroxypropylcellulose) (HPC) 100 % of control

Cc1cccnc1NC1=NCCO1
inactive: [17] 100 % of control | dose: 200.0 mg/kg/injection, schedule: Q01DX009 (ip), vehicle: saline with Tween-80 96 % of control | dose: 400.0 mg/kg/injection, schedule: Q01DX009 (ip), vehicle: saline with Tween-80 93 % of control

CCOC(=O)C1CCc2ccccc2CC1
inactive: dose: 200.0 mg/kg/injection, schedule: Q04DX003 (ip), vehicle: acetone 100 % of control

CC(C)c1nc2c(c(=O)n(C)c(=O)n2C)n1C
inactive: dose: 50.0 mg/kg/injection, schedule: Q01DX001 (ip), vehicle: saline 102 % of control | [18] 96 % of control | [19] 96 % of control | [20] 108 % of control

S=P(Oc1ccccc1)(N1CC1)N1CC1
inactive: dose: 25.0 mg/kg/injection, schedule: Q01DX009 (ip), vehicle: acetone 98 % of control | dose: 50.0 mg/kg/injection, schedule: Q01DX009 (ip), vehicle: acetone 98 % of control | [13] 100 % of control | [18] 87 % of control | dose: 100.0 mg/kg/injection, schedule: Q01DX009 (ip), vehicle: acetone 93 % of control | [9] 92 % of control | dose: 150.0 mg/kg/injection, schedule: Q01DX009 (ip), vehicle: saline 87 % of control | [19] 94 % of control | dose: 225.0 mg/kg/injection, schedule: Q01DX009 (ip), vehicle: saline 87 % of control

Cc1nc(N)[nH]c(=O)c1CCCCC#N
inactive: dose: 100.0 mg/kg/injection, schedule: Q01DX001 (ip), vehicle: Klucel (hydroxypropylcellulose) (HPC) 100 % of control | [3] 93 % of control and 106 % of control | dose: 100.0 mg/kg/injection, schedule: Q04DX002 (ip), vehicle: Klucel (hydroxypropylcellulose) (HPC) 100 % of control and 102 % of control | [4] 97 % of control | dose: 200.0 mg/kg/injection, schedule: Q01DX001 (ip), vehicle: Klucel (hydroxypropylcellulose) (HPC) 100 % of control | [5] 95 % of control and 100 % of control | dose: 200.0 mg/kg/injection, schedule: Q04DX002 (ip), vehicle: Klucel (hydroxypropylcellulose) (HPC) 102 % of control and 107 % of control | [6] 111 % of control | dose: 400.0 mg/kg/injection, schedule: Q01DX001 (ip), vehicle: Klucel (hydroxypropylcellulose) (HPC) 100 % of control | [7] 117 % of control | dose: 400.0 mg/kg/injection, schedule: Q04DX002 (ip), vehicle: Klucel (hydroxypropylcellulose) (HPC) 100 % of control and 104 % of control | [8] 102 % of control

CC(=O)Nc1ccc(S(=O)(=O)N(CCO)c2ccccc2)cc1
inactive: [4] 97 % of control | [6] 90 % of control | [8] 90 % of control

CC(=O)c1ccc2c(c1)Cc1ccccc1-2
inactive: [12] 105 % of control | [13] 95 % of control | [18] 90 % of control | [9] 101 % of control | [19] 90 % of control | [10] 96 % of control | [20] 90 % of control | [11] 91 % of control

CCCC(CCC)(S(=O)(=O)CC)S(=O)(=O)CC
inactive: dose: 100.0 mg/kg/injection, schedule: Q01DX001 (ip), vehicle: carboxymethylcellulose (CMC) 97 % of control | dose: 200.0 mg/kg/injection, schedule: Q01DX001 (ip), vehicle: carboxymethylcellulose (CMC) 97 % of control | dose: 400.0 mg/kg/injection, schedule: Q01DX001 (ip), vehicle: carboxymethylcellulose (CMC) 92 % of control

N#CCC1=Cc2ccccc2CC1
inactive: dose: 6.25 mg/kg/injection, schedule: Q01DX005 (ip), vehicle: saline 109 % of control | dose: 12.5 mg/kg/injection, schedule: Q01DX005 (ip), vehicle: saline 102 % of control | dose: 25.0 mg/kg/injection, schedule: Q01DX005 (ip), vehicle: saline 102 % of control | dose: 50.0 mg/kg/injection, schedule: Q01DX005 (ip), vehicle: saline 106 % of control and 107 % of control

O=C(c1ccccc1)N1C(c2ccccc2)C1(c1ccccc1)C1(c2ccccc2)SCCCS1 (stereo unspecified)
inactive: [3] 94 % of control | [4] 108 % of control | [5] 101 % of control | [6] 100 % of control | [7] 91 % of control | [8] 97 % of control

CC(=O)Nc1nc2ncc(CCN(C)c3ccc(C(=O)O)cc3)nc2c(=O)[nH]1
inactive: [16] 102 % of control | dose: 150.0 mg/kg/injection, schedule: Q01DX001 (ip), vehicle: saline 101 % of control
